Data reported in US7854753B2, “Photokinetic delivery of biologically active substances using pulsed incoherent light” (Photokinetix, Inc., priority 2002, dated 2010).

Experiment: Franz skin diffusion cell permeation (percutaneous absorption) under ambient, natural or pulsed incoherent LED light
Conditions: for Permeation Dark: ambient light absent; for 405/1.7 / 405/9.7 / 405/24: Table 10; for 405/1.7: 1.7 cps; for 405/9.7: 9.7 cps; for 405/24: 24 cps; for Ctrl: Table 10 peptides, ambient light only; for Permeation Ctrl: ambient cool fluorescent light only, 260-750 nm, 120 cps; for Permeation Ctrl-TiO2: ambient fluorescent light, sample with 2% (w/w) rutile TiO2

CC(C)C[C@H](NC(=O)[C@H](Cc1ccccc1)NC(=O)CNC(=O)CNC(=O)[C@@H](N)Cc1ccc(O)cc1)C(=O)O [Compound 14, Leucine Enkephalin (Tyr-Gly-Gly-Phe-Leu)]
% Permeation (percent increase or decrease vs dark baseline, equation 1) (350 + TiO2, 24 cps vs Dark-TiO2): 8.58%
% Permeation (percent increase or decrease vs dark baseline, equation 1) (350 + TiO2, 80 cps vs Dark-TiO2): 39.43%
Permeation (350 + TiO2, pulse rate 24 cps): 73.17 μg/cm^2/24 hrs
Permeation (350 + TiO2, pulse rate 80 cps): 28.50 μg/cm^2/24 hrs
Permeation (350 nm LED, pulse rate 24 cps): 84.44 μg/cm^2/24 hrs
Permeation (350 nm LED, pulse rate 80 cps): 31.30 μg/cm^2/24 hrs
% Permeation (percent increase or decrease vs dark baseline, equation 1) (350 nm, 24 cps vs Dark): −21.59%
% Permeation (percent increase or decrease vs dark baseline, equation 1) (350 nm, 80 cps vs Dark): 72.36%
% Permeation (percent increase or decrease vs dark baseline, equation 1) (390 + TiO2, 24 cps vs Dark-TiO2): 54.21%
% Permeation (percent increase or decrease vs dark baseline, equation 1) (390 + TiO2, 80 cps vs Dark-TiO2): 55.14%
Permeation (390 + TiO2, pulse rate 24 cps): 103.92 μg/cm^2/24 hrs
Permeation (390 + TiO2, pulse rate 80 cps): 31.71 μg/cm^2/24 hrs
Permeation (390 nm LED, pulse rate 24 cps): 108.49 μg/cm^2/24 hrs
Permeation (390 nm LED, pulse rate 80 cps): 31.32 μg/cm^2/24 hrs
% Permeation (percent increase or decrease vs dark baseline, equation 1) (390 nm, 24 cps vs Dark): 0.74%
% Permeation (percent increase or decrease vs dark baseline, equation 1) (390 nm, 80 cps vs Dark): 72.47%
% Permeation (percent increase or decrease vs dark baseline, equation 1) (405 + TiO2, 24 cps vs Dark-TiO2): 322.29%
% Permeation (percent increase or decrease vs dark baseline, equation 1) (405 + TiO2, 80 cps vs Dark-TiO2): −35.47%
Permeation (405 + TiO2, pulse rate 24 cps): 284.58 μg/cm^2/24 hrs
Permeation (405 + TiO2, pulse rate 80 cps): 13.19 μg/cm^2/24 hrs
Permeation (405 nm LED, pulse rate 24 cps): 87.52 μg/cm^2/24 hrs
Permeation (405 nm LED, pulse rate 80 cps): 20.82 μg/cm^2/24 hrs
% Permeation (percent increase or decrease vs dark baseline, equation 1) (405 nm, 24 cps vs Dark): −18.73%
% Permeation (percent increase or decrease vs dark baseline, equation 1) (405 nm, 80 cps vs Dark): 14.65%
% Permeation (percent increase or decrease vs dark baseline, equation 1) (450 + TiO2, 24 cps vs Dark-TiO2): 158.04%
% Permeation (percent increase or decrease vs dark baseline, equation 1) (450 + TiO2, 80 cps vs Dark-TiO2): 45.45%
Permeation (450 + TiO2, pulse rate 24 cps): 173.89 μg/cm^2/24 hrs
Permeation (450 + TiO2, pulse rate 80 cps): 29.73 μg/cm^2/24 hrs
Permeation (450 nm LED, pulse rate 24 cps): 29.25 μg/cm^2/24 hrs
Permeation (450 nm LED, pulse rate 80 cps): 21.81 μg/cm^2/24 hrs
% Permeation (percent increase or decrease vs dark baseline, equation 1) (450 nm, 24 cps vs Dark): −72.84%
% Permeation (percent increase or decrease vs dark baseline, equation 1) (450 nm, 80 cps vs Dark): 20.10%
Permeation Dark (Dark control): 41.68 μg/0.64 cm^2/25 hrs
Permeation (Dark control, 24 cps series): 107.69 μg/cm^2/24 hrs
Permeation (Dark control, 80 cps series): 18.16 μg/cm^2/24 hrs
Permeation (Dark-TiO2 control (2% TiO2), 24 cps series): 67.39 μg/cm^2/24 hrs
Permeation (Dark-TiO2 control (2% TiO2), 80 cps series): 20.44 μg/cm^2/24 hrs
Permeation (Day (natural daylight, not pulsed), control of the 24 cps series): 37.31 μg/cm^2/24 hrs
Permeation (Day (natural daylight, not pulsed), control of the 80 cps series): 20.89 μg/cm^2/24 hrs
% Permeation (percent increase or decrease vs dark baseline, equation 1) (Day vs Dark, 24 cps series): −65.35%
% Permeation (percent increase or decrease vs dark baseline, equation 1) (Day vs Dark, 80 cps series): 15.03%
Permeation (Day-TiO2 (natural daylight, 2% TiO2, not pulsed), control of the 24 cps series): 46.85 μg/cm^2/24 hrs
Permeation (Day-TiO2 (natural daylight, 2% TiO2, not pulsed), control of the 80 cps series): 18.64 μg/cm^2/24 hrs
% Permeation (percent increase or decrease vs dark baseline, equation 1) (Day-TiO2 vs Dark-TiO2, 24 cps series): −30.48%
% Permeation (percent increase or decrease vs dark baseline, equation 1) (Day-TiO2 vs Dark-TiO2, 80 cps series): −8.81%
405/1.7 (405 nm): 40.38
405/9.7 (405 nm): 1.23
405/24 (405 nm): 0.00
Ctrl: 0.00
Permeation Ctrl: 0.00 μg/0.64 cm^2/25 hrs
Permeation Ctrl-TiO2: 0.00 μg/0.64 cm^2/25 hrs

CC[C@H](C)[C@H](NC(=O)[C@H](Cc1ccc(O)cc1)NC(=O)[C@@H](NC(=O)[C@H](CCCNC(=N)N)NC(=O)[C@@H](N)CC(=O)O)C(C)C)C(=O)N[C@@H](Cc1cnc[nH]1)C(=O)N1CCC[C@H]1C(=O)N[C@@H](Cc1ccccc1)C(=O)O [Compound 15]
Permeation Dark (Dark control): 42.80 μg/0.64 cm^2/25 hrs
405/1.7 (405 nm): 19.99
405/9.7 (405 nm): 73.19
405/24 (405 nm): 3.87
Ctrl: 0.00
Permeation Ctrl: 0.00 μg/0.64 cm^2/25 hrs
Permeation Ctrl-TiO2: 0.00 μg/0.64 cm^2/25 hrs
